# Experimental data taken from patent US5380759A, “Methyl N-[6-(3,4,5-trimethoxybenzloxy)imidazo[1,2-b]pyridazin-2-zyl]carbamate used to treat leukemia” (priority 1987, dated 1995).
# How the values were obtained:
# P388/VCR = assay: In vivo activity against drug resistant tumour P388/VCR; design: species or system mouse; conditions: optimum dose 12.5 mg/kg
# Method: (§1) CD2-F1 mice, of the same sex, weighing within a 3 gram range surrounding 20 g, are used for this test. Control and test animals are injected intraperitoneally with a suspension of 10^6 viable P388/O tumour cells on day 0. In each test several dose levels which bracket the LD20 for the compound are evaluated; each dose level group contains 6 animals. The test compounds are prepared either in physiologic saline containing 0.05% Tween 80 or distilled water containing 5% dextrose and are administered intraperitoneally on days 1,5 and 9 relative to tumour implant. Doses are on a mg/kg basis according to individual animals' body weights. The day of death for each animal is recorded and the median day of death identified for each group. The difference between the median survival time for treated and control groups is expressed as a percentage increase in life span (% ILS).
# (§2) E. Activity Against Drug-Resistant Tumours
# (§3) Using a similar procedure to the Lymphocytic Leukaemia P388/O test, the compound of Example 1 was evaluated against P388/O tumours which had been made resistant to the following standard, clinically used anti-tumour agents: […]
# strains of P388 = assay: In vivo activity against strains of P388 resistant to major clinically used anti-tumour agents; design: species or system mouse; conditions: resistant to cyclophosphamide, methotrexate, actinomycin D, vincristine, adriamycin, 5-fluorouracil, cis-platinum, bis-chloronitrosourea and amsacrine
# Method: as §1, §2, §3
# M5076 = assay: In vivo activity against murine tumour M5076; design: species or system mouse; conditions: 5 mg/kg i.p. days 1, 5 and 9; 1 expt
# Method: as §1
# G. In vivo activity of the compound of Example 1 against murine tumours
# Using a similar procedure to the Lymphocytic Leukaemia P388/O test the compound of Example 1 was evaluated against the murine tumours B16, L1210 and M5076. A suspension of 10^6 tumour cells is implanted intraperitoneally into control and test animals on day zero. B16 tumour cells are administered intraperitoneally as a 1:10 Brei of cells on day zero. […] The day of death for each animal is recorded and the %ILS (percentage increase in life-span) calculated.
# tubulin = assay: Turbidimetric assay of tubulin polymerisation; format: biochemical, horse; conditions: 37° C., increase in A350nm 10 min after lag phase; read-out: Total tubulin polymerisation IC50
# Method: A) Tubulin Polymerisation Assay
# 1. Preparation of tubulin
# All manipulations are performed at 4° C. unless otherwise specified. The horse brain is washed in ice-cold BBG buffer and superficial meninges and blood vessels removed. After weighing, cerebral cortices are chopped, homogenised in 75 ml BBG buffer/100 g brain, centrifuged at 6500 g for 15 min and after removal of […], re-centrifuged at 100,000 g for 75 min. The volume of the supernatant (Vml) is measured and V/10 ml 10 mM GTP (Li salt) in H2 O added. The mixture is incubated in sealed centrifuge tubes (30 min, 34° C.) in a shaking water bath to polymerise the tubulin. After polymerisation the tubes are balanced and centrifuged at 100,000 g, (1 h at 27° C.) in a pre-warmed rotor. The high-speed pellet is resuspended in V/4 ml BB buffer and the preparation stirred on ice for 30 min and centrifuged at 100,000 g (1 h at 4° C.) to remove the cold-stable microtubules. An equal volume of BB2G buffer is added to the supernatant which is frozen rapidly in 5 ml samples in plastic weighing dishes floated on a solid CO2 /ethanol slurry, and stored overnight at -80° C. After ca. 18 hours the frozen samples of tubulin are thawed, 10 mM GTP in H2 O added to give a final concentration of 1 mM, and the new volume (Wml), is measured. The polymerisation/depolymerisation cycle is repeated exactly as above but substituting W for V to give twice-cycled tubulin.
# 2. Turbidimetric Assay of Tubulin Polymerisation
# Apparatus: recording spectrophotometer with a 6-position, thermostatted cuvette holder; full scale deflection=0.2 absorbance units.
# In a 1 ml spectrophotometer cuvette are mixed 100 μl 10 mM GTP (Li salt) made up in BB buffer, 10 μl H2 O or DMSO-depending on selected drug solvent, BB buffer and tubulin preparation such that the final increase in A350nm is 0.15 units after 16 mins (approx. 100 μl of tubulin prep. or 2.5 mg protein) in a final volume of 1 ml at 37° C. All reagents are stored on ice.
# Polymerisation is initiated by raising the temperature to 37° C. and the increase in A350nm of triplicate samples against a reference cuvette is recorded. The reference sample includes a similar incubation mixture either without tubulin or with the addition of 1 mM Ca^2+. The increase over initial A350nm 10 min after the completion of lag phase (control polymerisation is 80% complete within this time) is calculated and expressed as a percentage of the control value, for a range of drug concentrations. The drug concentration required to give a 50% change (IC50) in the control value is determined.
# P388 D1 cells = assay: P388 D1 colony-forming assay; format: cell-based; conditions: Mus musculus, P388D1; 24 h exposure, 14 days colony growth; read-out: IC50 colony formation
# Method: B) P338D1 Colony-forming Assay
# In this assay, cells from an in vitro-adapted line of the mouse lymphoid neoplasm, P388 are first exposed to serially diluted concentrations of test compound over a 24 hour period in culture. Thereafter, the ability of such treated cells to form discrete colonies over a 14 day period after resuspension in a semi-solid drug-free medium is determined.
# Initially cells in log growth are plated into individual 25 cm^2 tissue culture flasks each containing a final volume of 5 mls of Hepes buffered RPMI 1640 culture medium supplemented with 10 percent foetal calf serum, antibiotics and test compound. All compounds are formulated initially at appropriate concentrations in DMSO, 25 microliters of which is then added to each flask. All compounds are evaluated at concentrations ranging serially in four fold decrements from a top concentration some four fold greater than that already known to inhibit the proliferation of these cells by about 80 to 90 percent in the primary proliferative assay.
# After 24 hrs exposure to the test compound the cells are counted and a known number of live cells transferred to a 15 ml centrifuge tube to which 4 mls of a 0.25 percent low temperature gelling agarose solution in complete RPMI tissue culture medium is then added. After 13 days incubation at 37° C., 1 ml of 1% p-Iodonitrotetrazolium violet is added to the top of each tube and allowed to permeate through the agarose for a further 24 to 48 hrs. This dye is metabolised by living cells to produce an insoluble red crystalline product which facilitates counting of the colonies. Samples are taken from each tube and the number of colonies containing a minimum of 50 cells is determined. The concentration of compound necessary to inhibit colony formation by 50 percent relative to that of control cells incubated under identical conditions but in the absence of the test compound is determined.
smiles,measurement,setting,value
"COC(=O)Nc1cn2nc(OCc3cc(OC)c(OC)c(OC)c3)ccc2n1 [Example 1, Methyl N-[6-(3,4,5-trimethoxybenzyloxy)imidazo[1,2-b]pyridazin-2-yl]carbamate]",60 Day Survivors,P388/VCR,3/6
same,% ILS,P388/VCR,+145%
same,activity in vivo against resistant strains of P388,strains of P388,good activity in vivo
same,Mean % ILS (±SEM),M5076,28%
same,IC50,tubulin,420 nM
same,IC50,P388 D1 cells,13.2 nM
